# In patent US20220402950A1, “SUBSTITUTED BENZIMIDAZOLES AS PAD4 INHIBITORS” (BRISTOL-MYERS SQUIBB COMPANY, priority 2018, published 2022):
# Molecular target: human PAD4 (hPAD4) (Homo sapiens, UniProt Q9UM07)
# Experiment: RFMS Human PAD4 Functional Assay
# Assay type: biochemical
# Conditions: hPAD4 RFMS IC50, human PAD4, rapid-fire mass spectrum (RFMS) assay; 5 nM hPAD4, 250 μM BAEE
# Procedure: RFMS Human PAD4 Functional Assay:
# Compounds were solubilized in 100% DMSO to achieve a 10 mM compound concentration. Compound stock solutions were stored at RT. A series of dilutions were prepared in DMSO and mixed 8 times with 20 μL mixing volume. Final top concentration of compound in the assay is 50 μM.
# 0.13 μL of compound solution was added to 13 μL of 10 nM PAD4 in assay buffer. After 30 min 13 μl of 500 μM of BAEE was added in 25 mM hepes, pH 7.5, 5 mM NaCl, 1 mM DTT, 0.2 mg/ml BSA, 0.01% CHAPS, 50 μM Calcium, 5 μM TPEN was added and the reaction incubated for 90 min at 37° C. The enzymatic reaction was quenched by addition of 15 μl of 6.1N TCA, 100% Final Concentration is 20%, 35 μl of 8.5 mM phenyl glyoxal (final concentration 4 mM) is then added and the reaction is incubated for 30 min at 37° C.
# After 30 minutes the plates are spun down to remove all precipitate. The enzyme reaction was quenched with an equal volume of methanol containing internal standard (modified citrulline). Samples were loaded onto the Rapid Fire RF300 system (Agilent) wherein they were first sipped for 1000 ms and then directly loaded to a C18 separations cartridge using a mixture of acetonitrile containing 0.01% formic acid for 3000 ms desalting. The flow rate of the mobile phase was 1.5 ml/min.
# The dwell time for each transition was set at 200 ms, and the ESI voltage was used at 5500 with a source temperature of 400° C. Extracted ion peaks for each transition were integrated using the Rapid Fire Integrator software. Peak area of analyte was normalized with internal standard.).
# Sequence of human PAD4 (hPAD4) (Q9UM07 whole entry): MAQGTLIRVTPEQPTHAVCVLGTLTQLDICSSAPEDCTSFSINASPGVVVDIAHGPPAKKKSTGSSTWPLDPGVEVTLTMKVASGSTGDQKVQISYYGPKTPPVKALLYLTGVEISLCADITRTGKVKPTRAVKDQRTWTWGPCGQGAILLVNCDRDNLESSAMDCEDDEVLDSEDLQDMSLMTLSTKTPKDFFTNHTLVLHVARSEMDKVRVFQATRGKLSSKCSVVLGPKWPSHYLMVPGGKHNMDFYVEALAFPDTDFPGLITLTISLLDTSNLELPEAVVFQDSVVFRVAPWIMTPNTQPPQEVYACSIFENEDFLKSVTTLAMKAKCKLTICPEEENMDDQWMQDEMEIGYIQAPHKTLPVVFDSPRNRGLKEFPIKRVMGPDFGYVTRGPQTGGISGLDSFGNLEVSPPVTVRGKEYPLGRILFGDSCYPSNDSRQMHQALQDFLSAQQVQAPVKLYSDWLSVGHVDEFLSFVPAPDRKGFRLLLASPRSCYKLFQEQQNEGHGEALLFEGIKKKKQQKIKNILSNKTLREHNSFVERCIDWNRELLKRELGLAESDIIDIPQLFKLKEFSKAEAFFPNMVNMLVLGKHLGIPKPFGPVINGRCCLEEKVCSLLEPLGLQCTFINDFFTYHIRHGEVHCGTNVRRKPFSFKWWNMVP
row,IC50,Compound
1,0.049 µM,"CCOCC(=O)N1CCC(c2cccc3cc(-c4nc5cc(C(=O)N6C[C@H]7CC[C@@H]6[C@@H]7N)cc(OC)c5n4C)n(CC4CC4)c23)CC1 [Example 234, 1-(4-(2-(5-((1R,4R,7R)-7-amino-2-azabicyclo[2.2.1]heptane-2-carbonyl)-7-methoxy-1-methyl-1H-benzo[d]imidazol-2-yl)-1-(cyclopropylmethyl)-1H-indol-7-yl)piperidin-1-yl)-2-ethoxyethan-1-one]"
2,0.077 µM,"COC(=O)N1CC=C(c2cccc3cc(-c4nc5cc(C(=O)N6C[C@H]7CC[C@@H]6[C@@H]7N)cc(OC)c5n4C)n(CC4CC4)c23)CC1 [Example 221, methyl 4-(2-(5-((1R,4R,7R)-7-amino-2-azabicyclo[2.2.1]heptane-2-carbonyl)-7-methoxy-1-methyl-1H-benzo[d]imidazol-2-yl)-1-(cyclopropylmethyl)-1H-indol-7-yl)-3,6-dihydropyridine-1(2H)-carboxylate]"
3,0.016 µM,"[2H]C([2H])([2H])N(C(=O)C1CC(c2cccc3cc(-c4nc5cc(C(=O)N6C[C@H]7CC[C@@H]6[C@@H]7N)cc(OC)c5n4C)n(CC4CC4)c23)C1)C([2H])([2H])[2H] (single isomer, unassigned; isomer 1) [Example 195]"
4,0.056 µM,"COc1cc(C(=O)N2C[C@H]3CC[C@@H]2[C@@H]3N)cc2nc(-c3cc4cccc(CCCCCCN)c4n3CC3CC3)n(C)c12 [Example 17, (1R,4R,7R)-2-{2-[7-(6-aminohexyl)-1-(cyclopropylmethyl)-1H-indol-2-yl]-7-methoxy-1-methyl-1H-1,3-benzodiazole-5-carbonyl}-2-azabicyclo[2.2.1]heptan-7-amine]"
5,0.03 µM,"COc1cc(C(=O)N2C[C@H]3CC[C@@H]2[C@@H]3N)cc2nc(-c3cc4cccc(C5CCN(C(=O)Nc6cccc(F)c6)CC5)c4n3CC3CC3)n(C)c12 [Example 242, 4-(2-(5-((1R,4R,7R)-7-amino-2-azabicyclo[2.2.1]heptane-2-carbonyl)-7-methoxy-1-methyl-1H-benzo[d]imidazol-2-yl)-1-(cyclopropylmethyl)-1H-indol-7-yl)-N-(3-fluorophenyl)piperidine-1-carboxamide]"
6,0.096 µM,"COc1cc(C(=O)N2CC3CCC2[C@@H]3N)cc2nc(-c3cc4cccc(-c5cn(C)nc5-c5ccccc5F)c4n3CC3CC3)n(C)c12 (stereo partly drawn) [Example 135, ((7R)-7-amino-2-azabicyclo[2.2.1]heptan-2-yl)(2-(1-(cyclopropylmethyl)-7-(3-(2-fluorophenyl)-1-methyl-1H-pyrazol-4-yl)-1H-indol-2-yl)-7-methoxy-1-methyl-1H-benzo[d]imidazol-5-yl)methanone]"
7,0.131 µM,"COc1cc(C(=O)N2C[C@H]3CC[C@@H]2[C@@H]3N)cc2nc(-c3cc4cccc(-c5ccc6c(=O)[nH]ccc6c5)c4n3CC3CC3)n(C)c12 [Example 102, 6-(2-{5-[(1R,4R,7R)-7-amino-2-azabicyclo[2.2.1]heptane-2-carbonyl]-7-methoxy-1-methyl-1H-1,3-benzodiazol-2-yl}-1-(cyclopropylmethyl)-1H-indol-7-yl)-1,2-dihydroisoquinolin-1-one]"
8,0.099 µM,"COC(=O)Nc1ccc(-c2cccc3cc(-c4nc5cc(C(=O)N6C[C@H]7CC[C@@H]6[C@@H]7N)cc(OC)c5n4C)n(CC4CC4)c23)cn1 [Example 105, methyl N-[5-(2-{5-[(1R,4R,7R)-7-amino-2-azabicyclo[2.2.1]heptane-2-carbonyl]-7-methoxy-1-methyl-1H-1,3-benzodiazol-2-yl}-1-(cyclopropylmethyl)-1H-indol-7-yl)pyridin-2-yl]carbamate]"
9,0.016 µM,"COc1cc(C(=O)N2C[C@H]3CC[C@@H]2[C@@H]3N)cc2nc(-c3cc4cccc(C5CN(C(=O)CCO)C5)c4n3CC3CC3)n(C)c12 [Example 80, 1-[3-(2-{5-[(1R,4R,7R)-7-amino-2-azabicyclo[2.2.1]heptane-2-carbonyl]-7-methoxy-1-methyl-1H-1,3-benzodiazol-2-yl}-1-(cyclopropylmethyl)-1H-indol-7-yl)azetidin-1-yl]-3-hydroxypropan-1-one]"
10,0.057 µM,"COCCC(=O)N1CCC(c2cccc3cc(-c4nc5cc(C(=O)N6C[C@H]7CC[C@@H]6[C@@H]7N)cc(OC)c5n4C)n(CC4CC4)c23)CC1 [Example 236, 1-(4-(2-(5-((1R,4R,7R)-7-amino-2-azabicyclo[2.2.1]heptane-2-carbonyl)-7-methoxy-1-methyl-1H-benzo[d]imidazol-2-yl)-1-(cyclopropylmethyl)-1H-indol-7-yl)piperidin-1-yl)-3-methoxypropan-1-one]"
11,0.081 µM,"COc1cc(C(=O)N2C[C@H]3CC[C@@H]2[C@@H]3N)cc2nc(-c3cc4cccc(-c5ccc(C(N)=O)cc5F)c4n3CC3CC3)n(C)c12 [Example 191, 4-(2-(5-((1R,4R,7R)-7-amino-2-azabicyclo[2.2.1]heptane-2-carbonyl)-7-methoxy-1-methyl-1H-benzo[d]imidazol-2-yl)-1-(cyclopropylmethyl)-1H-indol-7-yl)-3-fluorobenzamide]"
12,0.1 µM,"COc1cc(C(=O)N2C[C@H]3CC[C@@H]2[C@@H]3N)cc2nc(-c3cc4cccc(C5CCOCC5)c4n3CC3CC3)n(C)c12 [Example 3, ((1R,4R,7R)-7-amino-2-azabicyclo[2.2.1]heptan-2-yl)(2-(1-(cyclopropylmethyl)-7-(tetrahydro-2H-pyran-4-yl)-1H-indol-2-yl)-7-methoxy-1-methyl-1H-benzo[d]imidazol-5-yl)methanone]"
13,0.061 µM,"COc1cc(C(=O)N2C[C@H]3CC[C@@H]2[C@@H]3N)cc2nc(-c3cc4cccc(OC)c4n3CC3CC3)n(C)c12 [Example 148, ((1R,4R,7R)-7-amino-2-azabicyclo[2.2.1]heptan-2-yl)(2-(1-(cyclopropylmethyl)-7-methoxy-1H-indol-2-yl)-7-methoxy-1-methyl-1H-benzo[d]imidazol-5-yl)methanone]"
14,0.058 µM,"COc1cc(C(=O)N2C[C@H]3CC[C@@H]2[C@@H]3N)cc2nc(-c3cc4cccc(-c5ccc6[nH]c(=O)ccc6c5)c4n3CC3CC3)n(C)c12 [Example 100, 6-(2-{5-[(1R,4R,7R)-7-amino-2-azabicyclo[2.2.1]heptane-2-carbonyl]-7-methoxy-1-methyl-1H-1,3-benzodiazol-2-yl}-1-(cyclopropylmethyl)-1H-indol-7-yl)-1,2-dihydroquinolin-2-one]"
15,0.034 µM,"COc1cc(C(=O)N2C[C@H]3CC[C@@H]2[C@@H]3N)cc2nc(-c3cc4cccc(C5CN(C(=O)Cc6ccccn6)C5)c4n3CC3CC3)n(C)c12 [Example 75, 1-[3-(2-{5-[(1R,4R,7R)-7-amino-2-azabicyclo[2.2.1]heptane-2-carbonyl]-7-methoxy-1-methyl-1H-1,3-benzodiazol-2-yl}-1-(cyclopropylmethyl)-1H-indol-7-yl)azetidin-1-yl]-1-(pyridin-2-yl)ethan-1-one]"

# Same assay, conditions: human PAD4, rapid-fire mass spectrum (RFMS) assay; 5 nM hPAD4, 250 μM BAEE; read-out: hPAD4 RFMS IC50
row,IC50,Compound
1,0.299 µM,COc1cc(C(=O)N2C[C@H]3CC[C@@H]2[C@@H]3N)cc2nc(-c3cc4cccc(-c5ccccc5)c4n3CC3CC3)n(C)c12 [compound 186]
2,0.162 µM,"COc1cc(C(=O)N2C[C@H]3CC[C@@H]2[C@@H]3N)cc2nc(-c3cc4cccc(Br)c4n3CC3CC3)n(C)c12 [Example 1, ((1R,4R,7R)-7-amino-2-azabicyclo[2.2.1]heptan-2-yl)(2-(7-bromo-1-(cyclopropylmethyl)-1H-indol-2-yl)-7-methoxy-1-methyl-1H-benzo[d]imidazol-5-yl)methanone]"
3,0.031 µM,"COc1cc(C(=O)N2C[C@H]3CC[C@@H]2[C@@H]3N)cc2nc(-c3cc4cccc(C5CN(S(C)(=O)=O)C5)c4n3CC3CC3)n(C)c12 [Example 64, (1R,4R,7R)-2-{2-[1-(cyclopropylmethyl)-7-(1-methanesulfonylazetidin-3-yl)-1H-indol-2-yl]-7-methoxy-1-methyl-1H-1,3-benzodiazole-5-carbonyl}-2-azabicyclo[2.2.1]heptan-7-amine]"
4,0.02 µM,"COc1cc(C(=O)N2C[C@H]3CC[C@@H]2[C@@H]3N)cc2nc(-c3cc4cccc(-c5ccc(O)c(CO)c5)c4n3CC3CC3)n(C)c12 [Example 119, ((1R,4R,7R)-7-amino-2-azabicyclo[2.2.1]heptan-2-yl)(2-(1-(cyclopropylmethyl)-7-(4-hydroxy-3-(hydroxymethyl)phenyl)-1H-indol-2-yl)-7-methoxy-1-methyl-1H-benzo[d]imidazol-5-yl)methanone]"
5,0.753 µM,"COc1cc(C(=O)N2C[C@H]3CC[C@@H]2[C@@H]3N)cc2nc(-c3cc4cccc(-c5ccc(O)c(C(=O)O)c5)c4n3CC3CC3)n(C)c12 [Example 121, 5-(2-(5-((1R,4R,7R)-7-amino-2-azabicyclo[2.2.1]heptane-2-carbonyl)-7-methoxy-1-methyl-1H-benzo[d]imidazol-2-yl)-1-(cyclopropylmethyl)-1H-indol-7-yl)-2-hydroxybenzoic Acid]"

row,Compound,IC50
1,"1-(2-(5-((1R,4R,7R)- 7-amino-2- azabicyclo[2.2.1]heptane- 2-carbonyl)-7- methoxy-1-methyl- 1H-benzo[d]imidazol- 2-yl)-1- (cyclopropylmethyl)- 1H-indol-7-yl)-N- (pyridin-3- yl)piperidine-1- carboxamide [Example 244]",0.019 µM
